Values of other authors as cited in patent US9498462B2, “Doxepin trans isomers and isomeric mixtures and methods of using the same to treat sleep disorders” (Pernix Sleep Inc., priority 2006, dated 2016).

How the values were obtained:
melatonin MT2 receptor = target: T1, melatonin MT2 receptor (Homo sapiens, UniProt P49286)
T1 sequence (P49286 1-362): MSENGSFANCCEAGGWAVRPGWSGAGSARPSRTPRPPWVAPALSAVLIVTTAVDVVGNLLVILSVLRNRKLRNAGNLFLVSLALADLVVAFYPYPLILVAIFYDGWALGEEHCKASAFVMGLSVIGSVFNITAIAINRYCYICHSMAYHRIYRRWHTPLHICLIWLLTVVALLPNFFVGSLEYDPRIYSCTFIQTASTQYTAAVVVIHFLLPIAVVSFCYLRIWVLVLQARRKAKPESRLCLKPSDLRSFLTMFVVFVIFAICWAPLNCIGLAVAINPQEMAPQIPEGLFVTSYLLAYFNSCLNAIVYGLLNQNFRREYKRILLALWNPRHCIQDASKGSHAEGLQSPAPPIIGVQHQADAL

melatonin MT1 receptor = melatonin MT1 receptor (Homo sapiens, UniProt P48039)
melatonin MT1 receptor, sequence (P48039 whole entry): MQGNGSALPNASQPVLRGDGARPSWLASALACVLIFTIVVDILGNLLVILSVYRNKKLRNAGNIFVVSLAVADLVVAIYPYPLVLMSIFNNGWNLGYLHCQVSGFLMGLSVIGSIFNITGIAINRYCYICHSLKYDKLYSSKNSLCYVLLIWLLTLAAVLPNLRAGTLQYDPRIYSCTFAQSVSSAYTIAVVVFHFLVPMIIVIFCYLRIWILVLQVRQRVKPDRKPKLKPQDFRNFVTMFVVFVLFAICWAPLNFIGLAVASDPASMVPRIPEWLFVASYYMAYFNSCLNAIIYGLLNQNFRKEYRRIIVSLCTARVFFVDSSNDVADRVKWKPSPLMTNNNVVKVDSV

affinity for melatonin MT2 receptor (melatonin MT2 receptor): high affinity
affinity for melatonin MT1 receptor (melatonin MT1 receptor): high affinity
Compound: CCC(=O)NCC[C@@H]1CCc2ccc3c(c21)CCO3 [Ramelteon, (S)—N-[2-(1,6,7,8-tetrahydro-2H-indeno-[5,4-b]furan-8-yl)ethyl]propionamide]
